The record followed here is patent US8013006B2.

Like-named read-outs stand apart in the source and are kept apart here.

The test system of this experiment is HCV replicon. In words: microbe, parasite or virus in culture. The experiment is classed as cell-based. The note with it: read-out: Replicon IC5Os. (A replicon is a self-replicating genome or part of one, used to study replication in cells.)
[1] abbreviates: Replicon IC50 values are determined by firefly luciferase signal, bicistronic replicon, 2 days.

On to `CCn1c(-c2cccc(NC(=O)OCCCCl)c2)c(C#N)c2ccc(OC(C)C)cc21` [Compound 586], for which, under setting [1], the IC50 lay in the range of 0.5 to 2 µM.

With `CCn1c(-c2cccc(NC(=O)OC(C)C)c2)c(C#N)c2ccc(OC(C)C)cc21` [Compound 587], under setting [1], the IC50 is 0.5 to 2 µM.

Take `C#CCOC(=O)Nc1cccc(-c2c(C#N)c3ccc(OC(C)C)cc3n2CC)c1` [Compound 588]: the IC50 under setting [1] was greater than 2 µM.

With `CCn1c(-c2cccc(NC(=O)OCCOC)c2)c(C#N)c2ccc(OC(C)C)cc21` [Compound 589], the IC50 under setting [1] was in the range of 0.5 to 2 µM.

As for `CCn1c(-c2cccc(NC(=O)OCC(C)C)c2)c(C#N)c2ccc(OC(C)C)cc21` [Compound 591], the IC50 under setting [1] was greater than 2 µM.

In the case of `CC#CCOC(=O)Nc1cccc(-c2c(C#N)c3ccc(OC(C)C)cc3n2CC)c1` [Compound 592], the IC50 under setting [1] is greater than 2 µM.

`CCn1c(-c2cccc(NC(=O)OCc3ccccc3)c2)c(C#N)c2ccc(OC(C)C)cc21` [Compound 593]: under setting [1], the IC50 is greater than 2 µM.

As to `CCn1c(-c2cccc(NC(=O)OCCl)c2)c(C#N)c2ccc(OC(C)C)cc21` [Compound 594], the IC50 under setting [1] is greater than 2 µM.

Turning to `CCCCOC(=O)Nc1cccc(-c2c(C#N)c3ccc(OC(C)C)cc3n2CC)c1` [Compound 595], under setting [1], the IC50 was greater than 2 µM.

For `C=CCOC(=O)Nc1cccc(-c2c(C#N)c3ccc(OC(C)C)cc3n2CC)c1` [Compound 596], under setting [1], the IC50 was 0.5 to 2 µM.

As for `C=CC(C)OC(=O)Nc1cccc(-c2c(C#N)c3ccc(OC(C)C)cc3n2CC)c1` (stereo not drawn) [Compound 597], the IC50 under setting [1] is greater than 2 µM.

For `CCCn1c(-c2cccc(NS(=O)(=O)CC)c2)c(C#N)c2ccc(OC)cc21` [Compound 599], under setting [1], the IC50 is greater than 2 µM.

On to `CCCNC(=O)Nc1cccc(-c2c(C#N)c3ccc(OC)cc3n2CCC)c1` [Compound 600], for which the IC50 under setting [1] is greater than 2 µM.

`CCOC(=O)Nc1cc(-c2c(C#N)c3ccc(OC(C)C)cc3n2CC)ccc1OC` [Compound 603]: the IC50 under setting [1] is greater than 2 µM.

Consider `CCOC(=O)Nc1ccc(F)c(-c2c(C#N)c3ccc(OC(C)C)cc3n2CC)c1` [Compound 604], for which the IC50 under setting [1] is greater than 2 µM.

`CCOC(=O)Nc1cccc(-c2c(C#N)c3cc(N4CCOCC4)ccc3n2CC)c1` [Compound 605]: under setting [1], the IC50 is greater than 2 µM.

As to `CCCS(=O)(=O)Nc1ccc(-c2c(C#N)c3cc(N4CCOCC4)ccc3n2CC)cc1` [Compound 608], the IC50 under setting [1] lay within 0.5 to 2 µM.

With `CCn1c(-c2ccc(NS(=O)(=O)CC)cc2)c(C#N)c2cc(N3CCOCC3)ccc21` [Compound 609], the IC50 under setting [1] was 0.5 to 2 µM.

With `CCn1c(-c2ccc(NS(=O)(=O)CC(F)(F)F)cc2)c(C#N)c2cc(Cl)ccc21` [Compound 615], the IC50 under setting [1] is greater than 2 µM.

As to `CCNC(=O)Nc1ccc(-c2c(C#N)c3cc(Cl)ccc3n2CC)cc1` [Compound 620], under setting [1], the IC50 fell in the range of 0.5 to 2 µM.

As for `CCCn1c(-c2ccc(NC(=O)OCC)cc2)c(C#N)c2ccc(OC)cc21` [Compound 624], under setting [1], the IC50 was in the range of 0.5 to 2 µM.

Turning to `CCCOC(=O)Nc1ccc(-c2c(C#N)c3ccc(OC)cc3n2CCC)cc1` [Compound 625], under setting [1], the IC50 was less than 0.5 µM.

`CCn1c(-c2cccc(NS(=O)(=O)CCCCl)c2)c(C#N)c2cc(Cl)ccc21` [Compound 629]: the IC50 under setting [1] was greater than 2 µM.

As for `CC(C)CCn1c(-c2ccc(NS(C)(=O)=O)cc2)c(C#N)c2cc(Cl)ccc21` [Compound 630], under setting [1], the IC50 fell in the range of 0.5 to 2 µM.

Regarding `C=Cn1c(-c2ccc(NS(C)(=O)=O)cc2)c(C#N)c2ccc(OC)cc21` [Compound 632], the IC50 under setting [1] lay in the range of 0.5 to 2 µM.

In the case of `C=Cn1c(-c2ccc(NS(=O)(=O)CCC)cc2)c(C#N)c2ccc(OC)cc21` [Compound 634], the IC50 under setting [1] was 0.5 to 2 µM.

With `C=Cn1c(-c2ccc(NS(=O)(=O)CCCCl)cc2)c(C#N)c2ccc(OC)cc21` [Compound 636], under setting [1], the IC50 is less than 0.5 µM.

Take `CCn1c(-c2ccc(NC(=O)OCCCl)cc2)c(C#N)c2ccc(OC)cc21` [Compound 637]: the IC50 (Hepatitis C virus, 48 h) is less than 0.5 µM.

For the compound `CCCn1c(-c2cccc(NS(=O)(=O)CCC)c2)c(C#N)c2ccc(OC)cc21` [Compound 639], the IC50 under setting [1] is greater than 2 µM.

Take `CCCn1c(-c2ccc(NC(=O)OCCF)cc2)c(C#N)c2ccc(OC)cc21` [Compound 640]: under setting [1], the IC50 fell in the range of 0.5 to 2 µM.

Consider `CCCn1c(-c2ccc(N(C)S(=O)(=O)CC)cc2)c(C#N)c2ccc(OC)cc21` [Compound 643], for which, under setting [1], the IC50 was 0.5 to 2 µM.

For the compound `CCC(=O)Nc1ccc(-c2c(C#N)c3cc(OC)ccc3n2CC)cc1` [Compound 644], the IC50 under setting [1] is greater than 2 µM.

Consider `CCn1c(-c2ccc(NC(=O)c3ccc4c(c3)OCO4)cc2)c(C#N)c2ccccc21` [Compound 645], for which the IC50 under setting [1] was greater than 2 µM.

For the compound `CCn1c(-c2ccc(NC(=O)c3ccco3)cc2)c(C#N)c2ccccc21` [Compound 646], under setting [1], the IC50 lay within 0.5 to 2 µM.

`CCn1c(-c2ccc(C(=O)Nc3ccc(Cl)cc3)cc2)c(C#N)c2cc(OC)ccc21` [Compound 647]: under setting [1], the IC50 was greater than 2 µM.

For `CCn1c(-c2ccc(C(=O)Nc3ccc(Cl)c(Cl)c3)cc2)c(C#N)c2cc(OC)ccc21` [Compound 648], the IC50 under setting [1] was 0.5 to 2 µM.

On to `CCCn1c(-c2ccc(N3CCCS3(=O)=O)cc2)c(C#N)c2ccc(OC)cc21` [Compound 649], for which, under setting [1], the IC50 was in the range of 0.5 to 2 µM.

As to `CCn1c(-c2ccc(NS(=O)(=O)CCN3CCSCC3)cc2)c(C#N)c2ccc(OC)cc21` [Compound 654], the IC50 under setting [1] was greater than 2 µM.

`COc1ccc2c(C#N)c(-c3ccc(NS(C)(=O)=O)cc3)n(CC3CCCC3)c2c1` [Compound 655]: the IC50 under setting [1] was greater than 2 µM.

In the case of `CCn1c(-c2ccc(N)cc2)c(C#N)c2ccc(OC(F)(F)F)cc21` [Compound 656], the IC50 under setting [1] is greater than 2 µM.

Regarding `CCn1c(-c2ccc(NS(=O)(=O)CC)cc2)c(C#N)c2c(Cl)cccc21` [Compound 657], the IC50 under setting [1] was greater than 2 µM.

Take `N#Cc1c(-c2ccc(N3CCCS3(=O)=O)cc2)n(CC2CC2)c2cc(OC(F)F)ccc12` [Compound 659]: the IC50 under setting [1] lay within 0.5 to 2 µM.

For the compound `CCCS(=O)(=O)Nc1ccccc1-c1c(C#N)c2ccc(OC)cc2n1CC` [Compound 662], the IC50 (Hepatitis C virus, 48 h) is less than 0.5 µM.

For the compound `CC(C)Oc1ccc2c(C#N)c(-c3ccc(O)c(N)c3)[nH]c2c1` [Compound 663], the IC50 under setting [1] was greater than 2 µM.

`CCCOC(=O)Nc1ccc(F)c(-c2c(C#N)c3ccc(OC(C)C)cc3n2CC)c1` [Compound 664]: the IC50 under setting [1] was greater than 2 µM.

Consider `CCn1c(-c2cc(NC(=O)OCCCl)ccc2F)c(C#N)c2ccc(OC(C)C)cc21` [Compound 665], for which the IC50 under setting [1] is greater than 2 µM.

Turning to `CCn1c(-c2cccc(CN(C)S(C)(=O)=O)c2)c(C#N)c2ccc(OC)cc21` [Compound 673], the IC50 under setting [1] is greater than 2 µM.

Take `CCS(=O)(=O)Nc1ccc(-c2c(C#N)c3ccc(OC)cc3n2CCOC)cc1` [Compound 674]: under setting [1], the IC50 is greater than 2 µM.

As for `CCn1c(-c2ccc3c(c2)CCN3)c(C#N)c2ccc(OC)cc21` [Compound 678], the IC50 under setting [1] is greater than 2 µM.

As to `CCCS(=O)(=O)Nc1ccc(-c2c(C#N)c3ccc(OC(F)F)cc3n2CC2CC2)cc1` [Compound 682], the IC50 under setting [1] fell in the range of 0.5 to 2 µM.

For `N#Cc1c(-c2ccc(NS(=O)(=O)CCCCl)cc2)n(CC2CC2)c2cc(OC(F)F)ccc12` [Compound 683], the IC50 under setting [1] was in the range of 0.5 to 2 µM.

As to `CCS(=O)(=O)N(C)c1ccc(-c2c(C#N)c3ccc(OC)cc3n2C(C)C)cc1` [Compound 684], the IC50 under setting [1] is greater than 2 µM.

Regarding `CCCn1c(-c2ccc(N(C)S(=O)(=O)CC)cc2)c(C#N)c2ccc(OC(F)F)cc21` [Compound 685], the IC50 under setting [1] is 0.5 to 2 µM.

On to `CCS(=O)(=O)N(C)c1ccc(-c2c(C#N)c3ccc(OC)cc3n2CC2CC2)cc1` [Compound 686], for which, under setting [1], the IC50 lay within 0.5 to 2 µM.
